Assay results: patent US20130281467A1, “NOVEL MICROBICIDES” (SYNGENTA PARTICIPATIONS AG, priority 2010, published 2013)

Columns and labels:
[1] = system: Mycosphaerella arachidis (Cercospora arachidicola); assay: Fungicidal activity against Mycosphaerella arachidis (Cercospora arachidicola) / liquid culture (early leaf spot); assay type: cell-based; conditions: 4-5 days after application, read-out: disease control (inhibition of growth, photometrically)
Procedure: Fungicidal Activity Against Mycosphaerella arachidis (Cercospora arachidicola)/Liquid Culture (Early Leaf Spot) Conidia of the fungus from cryogenic storage were directly mixed into nutrient broth (PDB potato dextrose broth). After placing a (DMSO) solution of test compound into a microtiter plate (96-well format), the nutrient broth containing the fungal spores was added. The test plates were incubated at 24° C. and the inhibition of growth was determined photometrically 4-5 days after application.

[2] = system: Glomerella lagenarium (Colletotrichum lagenarium); assay: Fungicidal activity against Glomerella lagenarium (Colletotrichum lagenarium) / liquid culture (anthracnose); assay type: cell-based; conditions: Colletotrichum orbiculare, 3-4 days after application, read-out: disease control (inhibition of growth, photometrically)
Procedure: Fungicidal Activity Against Glomerella lagenarium (Colletotrichum lagenarium)/Liquid Culture (Anthracnose) Conidia of the fungus from cryogenic storage were directly mixed into nutrient broth (PDB potato dextrose broth). After placing a (DMSO) solution of test compound into a microtiter plate (96-well format), the nutrient broth containing the fungal spores was added. The test plates were incubated at 24° C. and the inhibition of growth was measured photometrically 3-4 days after application.

[3] = system: Gaeumannomyces graminis; assay: Fungicidal activity against Gaeumannomyces graminis / liquid culture (take-all of cereals); assay type: cell-based; conditions: 4-5 days after application, read-out: disease control (inhibition of growth, photometrically)
Procedure: Fungicidal Activity Against Gaeumannomyces graminis/Liquid Culture (Take-all of Cereals) Mycelial fragments of the fungus from cryogenic storage were directly mixed into nutrient broth (PDB potato dextrose broth). After placing a (DMSO) solution of test compound into a microtiter plate (96-well format), the nutrient broth containing the fungal spores iss added. The test plates were incubated at 24° C. and the inhibition of growth was determined photometrically 4-5 days after application.

[4] = system: Monographella nivalis (Microdochium nivale); assay: Fungicidal activity against Monographella nivalis (Microdochium nivale) / liquid culture (foot rot cereals); assay type: cell-based; conditions: 4-5 days after application, read-out: disease control (inhibition of growth, photometrically)
Procedure: Fungicidal Activity Against Monographella nivalis (Microdochium nivale)/Liquid Culture (Foot Rot Cereals) Conidia of the fungus from cryogenic storage were directly mixed into nutrient broth (PDB potato dextrose broth). After placing a (DMSO) solution of test compound into a microtiter plate (96-well format), the nutrient broth containing the fungal spores was added. The test plates were incubated at 24° C. and the inhibition of growth was determined photometrically 4-5 days after application.

[5] = system: Mycosphaerella graminicola (Septoria tritici); assay: Fungicidal activity against Mycosphaerella graminicola (Septoria tritici) / liquid culture (Septoria blotch); assay type: cell-based; conditions: Zymoseptoria tritici, 4-5 days after application, read-out: disease control (inhibition of growth, photometrically)
Procedure: Fungicidal Activity Against Mycosphaerella graminicola (Septoria tritici)/Liquid Culture (Septoria Blotch) Conidia of the fungus from cryogenic storage were directly mixed into nutrient broth (PDB potato dextrose broth). After placing a (DMSO) solution of test compound into a microtiter plate (96-well format), the nutrient broth containing the fungal spores was added. The test plates were incubated at 24° C. and the inhibition of growth was determined photometrically 4-5 days after application.

[6] = system: Botryotinia fuckeliana (Botrytis cinerea); assay: Fungicidal activity against Botryotinia fuckeliana (Botrytis cinerea) / liquid culture (gray mould); assay type: cell-based; conditions: 3-4 days after application, read-out: disease control (inhibition of growth, photometrically)
Procedure: Fungicidal Activity Against Botryotinia fuckeliana (Botrytis cinerea)/Liquid Culture (Gray Mould) Conidia of the fungus from cryogenic storage were directly mixed into nutrient broth (Vogels broth). After placing a (DMSO) solution of test compound into a microtiter plate (96-well format), the nutrient broth containing the fungal spores was added. The test plates were incubated at 24° C. and the inhibition of growth was determined photometrically 3-4 days after application.

[7] = system: Puccinia recondita f. sp. tritici; assay: Fungicidal activity against Puccinia recondita f. sp. tritici / wheat / leaf disc preventative (brown rust); assay type: in vivo; conditions: foliar, wheat leaf segments, inoculated 1 day after application, compared to untreated, read-out: disease control
Procedure: Fungicidal Activity Against Puccinia recondita f. sp. tritici/Wheat/Leaf Disc Preventative (Brown Rust) Wheat leaf segments cv. Kanzler were placed on agar in multiwell plates (24-well format) and sprayed with the formulated test compound diluted in water. The leaf disks were inoculated with a spore suspension of the fungus 1 day after application. The inoculated leaf segments were incubated at 19° C. and 75% rh under a light regime of 12 h light/12 h darkness in a climate cabinet and the activity of a compound was assessed as percent disease control compared to untreated when an appropriate level of disease damage appears in untreated check leaf segments (7-9 days after application).

[8] = system: Phaeosphaeria nodorum (Septoria nodorum); assay: Fungicidal activity against Phaeosphaeria nodorum (Septoria nodorum) / wheat / leaf disc preventative (glume blotch); assay type: in vivo; conditions: Parastagonospora nodorum, foliar, wheat leaf segments, inoculated 2 days after application, compared to untreated, read-out: disease control
Procedure: Fungicidal Activity Against Phaeosphaeria nodorum (Septoria nodorum)/Wheat/Leaf Disc Preventative (Glume Blotch) Wheat leaf segments cv. Kanzler were placed on agar in a multiwell plate (24-well format) and sprayed with the formulated test compound diluted in water. The leaf disks were inoculated with a spore suspension of the fungus 2 days after application. The inoculated test leaf disks were incubated at 20° C. and 75% rh under a light regime of 12 h light/12 h darkness in a climate cabinet and the activity of a compound was assessed as percent disease control compared to untreated when an appropriate level of disease damage appears in untreated check leaf disks (5-7 days after application).

[9] = system: Thanatephorus cucumeris (Rhizoctonia solani); assay: Fungicidal activity against Thanatephorus cucumeris (Rhizoctonia solani) / liquid culture (foot rot, damping-off); assay type: cell-based; conditions: 3-4 days after application, read-out: disease control (inhibition of growth, photometrically)
Procedure: Fungicidal Activity Against Thanatephorus cucumeris (Rhizoctonia solani)/Liquid Culture (Foot Rot, Damping-Off) Mycelia fragments of a newly grown liquid culture of the fungus were directly mixed into nutrient broth (PDB potato dextrose broth). After placing a (DMSO) solution of the test compounds into a microtiter plate (96-well format), the nutrient broth containing the fungal material was added. The test plates were incubated at 24° C. and the inhibition of growth was determined photometrically 3-4 days after application.

[10] = system: Pyrenophora teres; assay: Fungicidal activity against Pyrenophora teres / barley / leaf disc preventative (net blotch); assay type: in vivo; conditions: foliar, barley leaf segments, inoculated 2 days after application, compared to untreated, read-out: disease control
Procedure: Fungicidal Activity Against Pyrenophora teres/Barley/Leaf Disc Preventative (Net Blotch) Barley leaf segments cv. Hasso were placed on agar in a multiwell plate (24-well format) and sprayed with the formulated test compound diluted in water. The leaf segments were inoculated with a spore suspension of the fungus 2 days after application. The inoculated leaf segments were incubated at 20° C. and 65% rh under a light regime of 12 h light/12 h darkness in a climate cabinet and the activity of a compound was assessed as disease control compared to untreated when an appropriate level of disease damage appears in untreated check leaf segments (5-7 days after application).

[11] = system: Blumeria graminis f. Sp. tritici (Erysiphe graminis f. sp. tritici); assay: Fungicidal activity against Blumeria graminis f. sp. tritici / wheat / leaf disc preventative (powdery mildew on wheat); assay type: in vivo; conditions: foliar, wheat leaf segments, inoculated 1 day after application, compared to untreated, read-out: disease control
Procedure: Fungicidal Activity Against Blumeria graminis f. Sp. tritici (Erysiphe graminis f. sp. tritici)/Wheat/Leaf Disc Preventative (Powdery Mildew on Wheat)
Wheat leaf segments cv. Kanzler were placed on agar in a multiwell plate (24-well format) and sprayed with the formulated test compound diluted in water. The leaf disks were inoculated by shaking powdery mildew infected plants above the test plates 1 day after application. The inoculated leaf disks were incubated at 20° C. and 60% rh under a light regime of 24 h darkness followed by 12 h light/12 h darkness in a climate chamber and the activity of a compound was assessed as percent disease control compared to untreated when an appropriate level of disease damage appears on untreated check leaf segments (6-8 days after application).

CO/N=C1\CC(C)(C)Cc2nc(-c3cccc(Cc4ccccc4)n3)ncc21 [Compound 23]
≥ 80%: inhibition at 200 ppm [1] | inhibition at 200 ppm [2] | inhibition at 200 ppm [3] | inhibition at 200 ppm [4] | inhibition at 200 ppm [5] | inhibition at 200 ppm [6]

CO/N=C1\CCCc2nc(-c3cccc(Cc4ccccc4Cl)n3)ncc21 [Compound 24]
≥ 80%: inhibition at 200 ppm [1] | inhibition at 200 ppm [2] | pest or weed control at 200 ppm [7] | inhibition at 200 ppm [3] | inhibition at 200 ppm [4] | inhibition at 200 ppm [5] | inhibition at 200 ppm [6] | pest or weed control at 200 ppm [8] | inhibition at 200 ppm [9]

c1ccc(Cc2cccc(-c3ncc4c(n3)C3CCC4C3)n2)cc1 (stereo not shown) [Compound 26]
≥ 80%: inhibition at 200 ppm [1] | inhibition at 200 ppm [2] | pest or weed control at 200 ppm [7] | inhibition at 200 ppm [3] | inhibition at 200 ppm [4] | pest or weed control at 200 ppm [10] | inhibition at 200 ppm [5] | inhibition at 200 ppm [6] | pest or weed control at 200 ppm [11] | pest or weed control at 200 ppm [8] | inhibition at 200 ppm [9]

CO/N=C1\CCCc2nc(-c3cccc(Cc4ccccc4OC)n3)ncc21 [Compound 27]
≥ 80%: inhibition at 200 ppm [1] | inhibition at 200 ppm [2] | pest or weed control at 200 ppm [7] | inhibition at 200 ppm [3] | inhibition at 200 ppm [4] | pest or weed control at 200 ppm [10] | inhibition at 200 ppm [5] | inhibition at 200 ppm [6] | pest or weed control at 200 ppm [11] | pest or weed control at 200 ppm [8]

Clc1ccccc1Cc1cccc(-c2ncc3c(n2)OCCO3)n1 [Compound 28]
≥ 80%: inhibition at 200 ppm [1] | inhibition at 200 ppm [2] | pest or weed control at 200 ppm [7] | inhibition at 200 ppm [3] | inhibition at 200 ppm [4] | pest or weed control at 200 ppm [10] | inhibition at 200 ppm [5] | inhibition at 200 ppm [6] | pest or weed control at 200 ppm [11] | pest or weed control at 200 ppm [8] | inhibition at 200 ppm [9]

c1ccc(Cc2cccc(-c3ncc4c(n3)CCCCC4)n2)cc1 [Compound 29, 2-(6-Benzyl-pyridin-2-yl)-6,7,8,9-tetrahydro-5H-cycloheptapyrimidine]
≥ 80%: inhibition at 200 ppm [1] | inhibition at 200 ppm [2] | pest or weed control at 200 ppm [7] | inhibition at 200 ppm [3] | inhibition at 200 ppm [4] | pest or weed control at 200 ppm [10] | inhibition at 200 ppm [5] | inhibition at 200 ppm [6] | pest or weed control at 200 ppm [11] | pest or weed control at 200 ppm [8] | inhibition at 200 ppm [9]

Cc1cccc(Cc2cccc(-c3ncc4c(n3)CCCCC4)n2)c1 [Compound 31]
≥ 80%: inhibition at 200 ppm [1] | inhibition at 200 ppm [2] | pest or weed control at 200 ppm [7] | inhibition at 200 ppm [3] | pest or weed control at 200 ppm [10] | inhibition at 200 ppm [5] | pest or weed control at 200 ppm [11] | pest or weed control at 200 ppm [8] | inhibition at 200 ppm [9]

Cc1ccc(Cc2cccc(-c3ncc4c(n3)CC(C)(C)CC4)n2)cc1 [Compound 36]
≥ 80%: inhibition at 200 ppm [1] | inhibition at 200 ppm [2] | inhibition at 200 ppm [3] | inhibition at 200 ppm [4] | pest or weed control at 200 ppm [10] | inhibition at 200 ppm [5] | inhibition at 200 ppm [6] | pest or weed control at 200 ppm [11] | pest or weed control at 200 ppm [8] | inhibition at 200 ppm [9]

COc1ccc(Cc2cccc(-c3ncc4c(n3)CCCCC4)n2)cn1 [Compound 39, 2-[6-(6-Methoxy-pyridin-3-ylmethyl)-pyridin-2-yl]-6,7,8,9-tetrahydro-5H-cycloheptapyrimidine]
≥ 80%: inhibition at 200 ppm [1] | inhibition at 200 ppm [2] | pest or weed control at 200 ppm [7] | inhibition at 200 ppm [3] | pest or weed control at 200 ppm [10] | inhibition at 200 ppm [5] | pest or weed control at 200 ppm [11] | pest or weed control at 200 ppm [8]

COc1ccc(C(C)c2cccc(-c3ncc4c(n3)CC(C)(C)CC4)n2)cn1 (stereo not shown) [Compound 43]
≥ 80%: inhibition at 200 ppm [1] | inhibition at 200 ppm [2] | inhibition at 200 ppm [3] | inhibition at 200 ppm [4] | pest or weed control at 200 ppm [10] | inhibition at 200 ppm [5] | inhibition at 200 ppm [6] | pest or weed control at 200 ppm [11] | pest or weed control at 200 ppm [8]
